In patent US20230075856A1, “CYCLIC SULFAMIDE COMPOUNDS FOR TREATMENT OF HBV” (Assembly Biosciences, Inc., priority 2018, published 2023) one finds EC50 data, which are given here for 29 molecules.

Some results are limits rather than exact numbers.

The first experiment has as its system HBV viral load production from HepAD38 cells. Briefly: Viral production from HepAD38 cells: viral load in supernatant by qPCR of the HBV core sequence. The class given is cell-based. To be noted: 5 days incubation, qPCR of supernatant HBV DNA vs DMSO control, read-out: viral load lowering EC50 (Activity). As for the experimental part:
Assay Measuring Activity of Test Compounds on Viral Production from HepAD38 Cells
HepAD38 cells grown in a T-150 flask (Corning, cat #: 430825) with Growth Medium (DMEM/F12 […] (Hyclone, cat #: SH30023.02), 1× Pen/Strep (Invitrogen, cat #: 15140-122), 10% FBS (Tissue Culture Biologics, cat #: 101), […] G418 (Alfa Aesar, cat #: J62671), 1 μg/mL Tetracycline (Teknova, cat #: T3320)) were detached with 0.25% trypsin-EDTA (Invitrogen, cat #: 25200-056). Tetracycline-free treatment medium (15 mL DMEM/F12 (1:1) 1× Pen/step, with 2% FBS, Tet-system approved (Clontech, cat #: 631106) were then added to mix, transferred into a 50 ml conical tube (Falcon, cat #: 21008-918,) and spun at 1300 rpm for 5 min. Pelleted cells were then re-suspended/washed with 50 mL of 1×DPBS (Invitrogen, cat #: 14190-136) 2 times and 50 mL treatment medium twice. HepAD38 cells were then re-suspended with 10 mL of treatment medium, syringed and counted. Wells of 96-well clear bottom TC plate (Corning, cat #: 3904,) were seeded at 50,000 cells/well in 180 μL of treatment medium, and 20 μL of either 10% DMSO (Sigma, cat #: D4540) as controls or a 10× solution of test compounds in 10% DMSO in treatment media was added for a final compound concentration starting at 10 μM, and plates were incubated in 5% CO2 incubator at 37° C. for 5 days.
Subsequently viral load production was assayed by quantitative PCR (qPCR) of the HBV core sequence. PCR reaction mixture containing forward primers HBV-f 5′-CTGTGCCTTGGGTGGCTIT-3′ (IDT DNA), Reverse primers HBV-r 5′-[…]-3′ (IDT DNA), Fluorescent TaqMan™ Probes HBV-probe 5′-FAM/AGCTCCAAA/ZEN/[…]/3IABkFQ-3′ (IDT DNA), 10 μL/well of PerfeCTa® qPCR ToughMix® (Quanta Biosciences, Cat #: 95114-05K), and 6 μL/well of DEPC water (Alfa Aesar, cat #: J62087) was prepared. Four μL of supernatant was added to 16 μL of the reaction mixture in a qPCR plate (Applied Biosytems, Cat #: 4309849), sealed with a film (Applied Biosystems, Cat #: 4311971), centrifuged for a few seconds, and subsequently run on an Applied Biosystems VIIA7. The PCR mixture was incubated at 45° C. for 5 min, then 95° C. for 10 min, followed by 40 cycles of 10 seconds at 95° C. and 20 seconds at 60° C. Viral load was quantified against known HBV DNA standards by using ViiA™ 7 Software. Viral load in the supernatant from wells with treated cells were compared against viral load in supernatant from DMSO control wells (≥3 per plate). Cell viability assay was performed with CellTiter-Glo Luminescent Cell Viability Assay (Promega, cat #: G7573) with modification. Mixed appropriate amount of CellTiter-Glo (CTG) 1×DPBS in a 1:1 ratio, added 100 uL of the mixture to each well followed completely removal of all supernatant in each well without touching cell surface. Incubated the plate at room temperature for 10 min on an orbital shaker, and then read the plate with a plate reader (TECAN M1000 or Envision). EC50 or CC50 values were calculated through curve-fitting of the four-parameter nonlinear-logistic-regression model (GraphPad Prism or Dotmatics). CC50 values were all >10 μM.
A general note: Quantitative PCR measures a nucleic acid by following its amplification.
The EC50 is the concentration giving half of the maximal effect. Consider `CN1C(C(=O)Nc2ccc(F)c(Cl)c2)CC(C(=O)NCc2sc(-c3ccccc3F)nc2C(F)(F)F)NS1(=O)=O` (single isomer, unassigned) [1082-ISOMER-B, N3-(3-chloro-4-fluoro-phenyl)-N5-[[2-(2-fluorophenyl)-4-(trifluoromethyl)thiazol-5-yl]methyl]-2-methyl-1,1-dioxo-1,2,6-thiadiazinane-3,5-dicarboxamide], for which the EC50 is 0.05 to 0.1 µM. Still for that read-out and setting: with `CN1C(C(=O)Nc2ccc(F)c(Cl)c2)CC(C(=O)NCc2cc(-c3ccccc3Cl)no2)NS1(=O)=O` (single isomer, unassigned; isomer-b) [1025-ISOMER-B, N3-(3-chloro-4-fluoro-phenyl)-N5-[[3-(2-chlorophenyl)isoxazol-5-yl]methyl]-2-methyl-1,1-dioxo-1,2,6-thiadicarboxamidediazinane-3,5-] the figure was 0.1 to 10 µM; with `COC(=O)N1CCC(NC(=O)C2CC(C(=O)Nc3ccc(F)c(Cl)c3)N(C)S(=O)(=O)N2)CC1` (single isomer, unassigned) [Compound 477-ISOMER-B, methyl 4-[[5-[(3-chloro-4-fluoro-phenyl)carbamoyl]-6-methyl-1,1-dioxo-1,2,6-thiadiazinane-3-carbonyl]amino]piperidine-1-carboxylate], 0.1 to 10 µM. Same read-out and setting: for “N3-(3-chloro-4-fluoro-phenyl)-N5-[(S)-(2-chlorothiazol-5-yl)-phenyl-methyl]-2-methyl-1,1-dioxo-1,2,6-thiadiazinane-3,5- [1066-ISOMER-B]” the value was under 0.05 µM.

For the molecule `Cc1c(CNC(=O)C2CC(C(=O)Nc3ccc(F)c(Cl)c3)N(C)S(=O)(=O)N2)nnn1-c1ccccc1` (single isomer, unassigned; isomer-b) [1148-ISOMER-B, N3-(3-chloro-4-fluoro-phenyl)-2-methyl-N5-[(5-methyl-1-phenyl-triazol-4-yl)methyl]-1,1-dioxo-1,2,6-thiadiazinane-3,5-dicarboxamide], the EC50 lay within 0.1 to 10 µM. On the same count and under the same terms, with `CN1C(C(=O)Nc2ccc(F)c(Cl)c2)CC(C(=O)NCc2cnc(Cl)s2)NS1(=O)=O` (single isomer, unassigned) [1199-ISOMER-B, N3-(3-chloro-4-fluoro-phenyl)-N5-[(2-chlorothiazol-5-yl)methyl]-2-methyl-1,1-dioxo-1,2,6-thiadiazinane-3,5-dicarboxamide] the figure was 0.1 to 10 µM.

Staying with this experiment, now noted: Hepatitis B virus, HePAD38, 120 h, 5 days incubation, qPCR of supernatant HBV DNA vs DMSO control, read-out: viral load lowering EC50 (Activity).
`CN1C(C(=O)Nc2ccc(F)c(Cl)c2)CC(C(=O)NCc2cnc(-n3cccn3)s2)NS1(=O)=O` (centres unmarked) [Compound 1157]: the EC50 fell in the range of 0.05 to 0.1 µM. Same read-out and setting: for `CN1C(C(=O)Nc2ccc(F)c(Cl)c2)CC(C(=O)NCc2cnc(-c3ccc(OCCN4CCCCC4)cc3)s2)NS1(=O)=O` (centres unmarked) [Compound 922] the value was under 0.05 µM; for `CN1C(C(=O)Nc2ccc(F)c(Cl)c2)CC(C(=O)N[C@@H](c2ccccc2)c2cnc(-c3ccccc3)s2)NS1(=O)=O` (single isomer, unassigned) [1067-ISOMER-D], 0.1 to 10 µM; for `CN1C(C(=O)Nc2ccc(F)c(Cl)c2)CC(C(=O)Nc2cnn(C)c2)NS1(=O)=O` (centres unmarked) [Compound 478], 0.1 to 10 µM. On the same count and under the same terms, with `CN1C(C(=O)Nc2ccc(F)c(Cl)c2)CC(C(=O)NCc2ccccc2-c2cn(C)cn2)NS1(=O)=O` (single isomer, unassigned) [Compound 823-ISOMER-B, N3-(3-chloro-4-fluoro-phenyl)-2-methyl-N5-[[2-(1-methylimidazol-4-yl)phenyl]methyl]-1,1-dioxo-1,2,6-thiadiazinane-3,5-dicarboxamide] the figure was 0.1 to 10 µM; with `Cc1ncc(CNC(=O)C2CC(C(=O)Nc3ccc(F)c(Cl)c3)N(C)S(=O)(=O)N2)s1` (centres unmarked) [Compound 495], under 0.05 µM; with `Cc1cn(-c2ccc(F)cc2F)nc1CNC(=O)C1CC(C(=O)Nc2ccc(F)c(Cl)c2)N(C)S(=O)(=O)N1` (single isomer, unassigned) [1144-ISOMER-A, N3-(3-chloro-4-fluoro-phenyl)-N5-[[1-(2,4-difluorophenyl)-4-methyl-pyrazol-3-yl]methyl]-2-methyl-1,1-dioxo-1,2,6-thiadiazinane-3,5-dicarboxamide], under 0.05 µM. As to `CCN1C(C(=O)Nc2ccc(F)c(Cl)c2)CC(C(=O)NCc2cnc(C)s2)NS1(=O)=O` (centres unmarked) [Compound 888], the EC50 fell in the range of 0.1 to 10 µM. Still for that read-out and setting: with `Cc1ncc(CNC(=O)C2CC(C(=O)Nc3ccc(F)c(Cl)c3)N(CC(F)(F)F)S(=O)(=O)N2)s1` (centres unmarked) [Compound 891] the figure was 0.1 to 10 µM; with `CCn1ccc(CNC(=O)C2CC(C(=O)Nc3ccc(F)c(Cl)c3)N(C)S(=O)(=O)N2)n1` (centres unmarked) [Compound 745], 0.05 to 0.1 µM. Same read-out and setting: with `Cc1nc(-c2ccccc2Cl)sc1[C@H](NC(=O)C1CC(C(=O)Nc2ccc(F)c(Cl)c2)N(C)S(=O)(=O)N1)c1ccccc1` (single isomer, unassigned) [1100-ISOMER-A] the figure was under 0.05 µM. For `CN1C(C(=O)Nc2ccc(F)c(Cl)c2)CC(C(=O)NCc2cc(-c3ccccc3Cl)no2)NS1(=O)=O` (centres unmarked) [Compound 1025], the EC50 is under 0.05 µM. On the same count and under the same terms, for `CN1C(C(=O)Nc2ccc(F)c(Cl)c2)CC(C(=O)NCc2ncc(-c3ccc(F)cc3)s2)NS1(=O)=O` (centres unmarked) [Compound 1153] the value was under 0.05 µM; for `Cc1nc(-c2ccccc2F)sc1CNC(=O)C1CC(C(=O)Nc2ccc(F)c(Cl)c2)N(C)S(=O)(=O)N1` (single isomer, unassigned) [1016-ISOMER-B, N3-(3-chloro-4-fluoro-phenyl)-N5-[[2-(2-fluorophenyl)-4-methyl-thiazol-5-yl]methyl]-2-methyl-1,1-dioxo-1,2,6-thiadiazinane-3,5-dicarboxamide], 0.05 to 0.1 µM. The same measure, in the same setting: with `CN1C(C(=O)Nc2ccc(F)c(Cl)c2)CC(C(=O)NC2CCN(c3ccnc(F)c3)CC2)NS1(=O)=O` (single isomer, unassigned) [1040-ISOMER-A, N3-(3-chloro-4-fluoro-phenyl)-N5-[1-(2-fluoro-4-pyridyl)-4-piperidyl]-2-methyl-1,1-dioxo-1,2,6-thiadiazinane-3,5-dicarboxamide] the figure was under 0.05 µM; with `Cc1nc(-c2ccccc2Cl)sc1CNC(=O)C1CC(C(=O)Nc2ccc(F)c(Cl)c2)N(C)S(=O)(=O)N1` (single isomer, unassigned) [1015-ISOMER-A, N3-(3-Chloro-4-fluoro-phenyl)-N5-[[2-(2-chlorophenyl)-4-methyl-thiazol-5-yl]methyl]-2-methyl-1,1-dioxo-1,2,6-thiadiazinane-3,5-dicarboxamide], under 0.05 µM. Take `CN1C(C(=O)Nc2ccc(F)c(Cl)c2)CC(C(=O)NC2CCN(S(C)(=O)=O)CC2)NS1(=O)=O` (centres unmarked) [Compound 710]: the EC50 is 0.1 to 10 µM.

As for `CN1C(C(=O)Nc2ccc(F)c(Cl)c2)CC(C(=O)NCc2ccccc2Cl)NS1(=O)=O` (centres unmarked) [Compound 820], the EC50 is under 0.05 µM.

`CN1C(C(=O)Nc2ccc(F)c(Cl)c2)CC(C(=O)NCc2ncc(-c3ccc(O)cc3)s2)NS1(=O)=O` (centres unmarked) [Compound 1009]: the EC50 was under 0.05 µM.

Consider `CN1C(C(=O)Nc2ccc(F)c(Cl)c2)CC(C(=O)NCc2cnc(-c3ccccc3Cl)s2)NS1(=O)=O` (centres unmarked) [Compound 912], for which the EC50 is under 0.05 µM. Still for that read-out and setting: for `CN1C(C(=O)Nc2ccc(F)c(Cl)c2)CC(C(=O)Nc2cccnc2)NS1(=O)=O` (centres unmarked) [Compound 708] the value was 0.1 to 10 µM.

For the molecule `CN1C(C(=O)Nc2ccc(F)c(Cl)c2)CC(C(=O)NCc2cnccn2)NS1(=O)=O` (centres unmarked) [Compound 704], the EC50 is 0.1 to 10 µM. Same read-out and setting: with `CN1C(C(=O)Nc2ccc(F)c(Cl)c2)CC(C(=O)NCc2cnc(-c3ccc(F)cc3)s2)NS1(=O)=O` (centres unmarked) [Compound 916] the figure was under 0.05 µM.
